Tests used:
[1] = target: T1, Human neutrophil elastase (Homo sapiens, UniProt P08246); test: HNE inhibitory activity in vitro (fluorescence-quenched substrate); assay type: biochemical
T1 construct: purchased Elastin Products Company, Inc. (EPC, Owensville, USA) SE563
T1 sequence (P08246 30-267): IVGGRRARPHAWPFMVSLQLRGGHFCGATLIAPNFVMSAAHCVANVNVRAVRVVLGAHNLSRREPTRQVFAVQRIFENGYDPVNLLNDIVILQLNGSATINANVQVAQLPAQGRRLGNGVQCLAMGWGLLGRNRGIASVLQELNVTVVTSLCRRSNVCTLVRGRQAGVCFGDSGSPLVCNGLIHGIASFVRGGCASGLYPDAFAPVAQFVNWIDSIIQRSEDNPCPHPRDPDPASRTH

human kallikrein 7 = human kallikrein 7 (Homo sapiens, UniProt P49862); test: Kallikrein-7 inhibitory activity in vitro (fluorescence-quenched substrate); assay type: biochemical
Sequence of human kallikrein 7 (P49862 30-253): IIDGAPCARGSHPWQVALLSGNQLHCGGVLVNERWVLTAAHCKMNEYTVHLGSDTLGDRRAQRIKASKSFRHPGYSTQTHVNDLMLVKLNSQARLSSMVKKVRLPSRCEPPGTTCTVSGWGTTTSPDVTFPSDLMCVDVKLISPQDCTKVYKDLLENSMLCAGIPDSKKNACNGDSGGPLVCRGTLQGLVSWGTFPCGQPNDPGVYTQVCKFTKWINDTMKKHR

## CCC(C)[C@@H]1NC(=O)[C@H](Cc2ccc(O)cc2)N(C)C(=O)[C@H](C(C)CC)N2C(=O)C(CC[C@@H]2O)NC(=O)[C@H](CC(C)C)NC(=O)[C@@H](NC(=O)[C@H](CCC(N)=O)NC(=O)C(C)C)[C@@H](C)OC1=O (stereo partly drawn) [formula II]
[1]
  IC50: 10 nM
Human kallikrein 7; hKallikrein7 IC50, Table 10
  IC50: 1 nM
Human kallikrein 7; hKallikrein7 IC 50, Table 11
  IC50: 1 nM

Reference: patent US9127044B2, “Cyclic depsipeptides” (NOVARTIS AG, priority 2007, dated 2015)
